Experimental data taken from patent US4145554A, “3-Nitropyrazole derivatives” (Eli Lilly and Company, priority 1977, dated 1979).
Converted amounts (≈) assume the structure as drawn. Like-named read-outs stand apart in the source and are kept apart here.

How the values were obtained:
[1] = system: Escherichia coli; test: in vitro tube dilution test (MIC); assay type: cell-based; details: tube dilution, read-out: MIC
Source text: (§1) Our compound, 1-(2-hydroxyethyl)-3-nitro-4-pyrazolecarboxamide, has been extensively tested in vitro to determine the range of microorganisms against which it is active. The table of data below reports the minimum inhibitory concentration (MIC) at which the compound is effective in controlling a variety of microorganisms in a standard tube dilution test system. The MIC is reported as micrograms of compound per milliliter.
(§2) Other compounds of our invention have also been tested in the tube dilution test and shown to have in vitro activity against a number of microorganisms. The table below reports tests of a number of exemplary compounds against exemplary microorganisms. The compounds are identified by their numbers in the listing above. The data are reported as the MIC in micrograms per milliliter against the named exemplary microorganisms.

[2] = system: Mycoplasma gallisepticum; test: in vitro tube dilution test (MIC); assay type: cell-based; details: Mycoplasmoides gallisepticum; Mycoplasma gallisepticum, tube dilution; read-out: MIC
Source text: as §1, §2

[3] = system: Pasteurella multocida; test: in vitro tube dilution test (MIC); assay type: cell-based; details: tube dilution, read-out: MIC
Source text: as §1
(§3) The other preferred compounds of our invention have also been thoroughly tested in the in vitro tube dilution test.
as §2

[4] = system: Salmonella dublin; test: in vitro tube dilution test (MIC); assay type: cell-based; details: Salmonella enterica; Salmonella dublin, tube dilution; read-out: MIC
Source text: as §3, §2

[5] = system: Staphylococcus aureus sp. 1130; test: in vitro tube dilution test (MIC); assay type: cell-based; details: read-out: MIC
Source text: as §3, §2

[6] = system: Vibrio coli 3811; test: in vitro tube dilution test (MIC); assay type: cell-based; details: Campylobacter coli; Vibrio coli 3811, tube dilution; read-out: MIC
Source text: as §3, §2

[7] = system: Streptococcus sp. 80; test: in vitro tube dilution test (MIC); assay type: cell-based; details: Streptococcus sp. 80, tube dilution; read-out: MIC
Source text: as §2

[8] = system: H. meleagridis; test: Blackhead in poultry, chicks; assay type: in vivo
Method: (§4) One- to three-week-old chicks and turkey poults were obtained from homogeneous source flocks and allocated into treatment groups. Some groups were held as infected, untreated controls, and other groups were treated with 3-nitropyrazoles by administering the compounds in the birds' feed. Various concentrations of the pyrazoles were administered to determine the least concentration which protected the birds. A few days after the administration of medicated feed began, all of the birds were challenged by rectally administering a suspension of at least 5,000 H. meleagridis protozoa per chick. The challenge organisms had been originally obtained from infected chickens, and were grown in vitro to provide a supply of organisms for testing.
(§5) The birds were held for about seven days after the challenge was administered, during which time the administration of pyrazole-medicated feed was continued. Then all of the chicks, including the untreated, infected controls, were sacrificed and necropsied. The cecum and the liver of each bird were examined for characteristic H. meleagridis lesions.
(§6) For each compound, the lowest feed concentration which gave an active response is indicated. While feed consumption data were not taken during the tests, the birds ate at such a rate that a feed concentration of 0.02 percent is equivalent to a treatment rate of about 10 mg./kg./day.

[9] = system: Salmonella typhimurium; test: Salmonellosis in chickens, single injection to day-old chicks; assay type: in vivo; details: for responders at 60 mg/kg: Salmonella enterica, TYPHIMURIUM, 168 h, single injection of 60 mg./kg., seven days, read-out: Survival (converted)
Method: A number of our 3-nitropyrazoles have been tested against an induced infection of Salmonella typhimurium in day-old chicks. The test was conducted by administering a single injection of 60 mg./kg. of the compounds to each of five chicks. The following day, the chicks were challenged by the subcutaneous injection of a dispersion of S. typhimurium organisms sufficient to kill most or all of the untreated control chicks.
Some of the compounds were tested more than once, in which instances the data are reported as the total survivors from the multiple treatment groups. Untreated, challenged control groups of chicks were tested together with each batch of groups of chicks to which test compounds were administered. Since the mortality of the untreated control chicks varied somewhat from one group of tests to another, results of the untreated control groups are reported below with each test.

[10] = system: Mycoplasma synoviae; test: in vitro tube dilution test (MIC); assay type: cell-based; details: Mycoplasmopsis synoviae, footnote 1: M. synoviae
Source text: as §1, §2

[11] = system: Pseudomonas sp.; test: in vitro tube dilution test (MIC); assay type: cell-based
Source text: as §1, §3

[12] = system: Salmonella heidelburg 1593; test: in vitro tube dilution test (MIC); assay type: cell-based; details: Salmonella heidelburg 1593, tube dilution
Source text: as §1, §3

[13] = system: Salmonella pullorum Ill.; test: in vitro tube dilution test (MIC); assay type: cell-based; details: Salmonella enterica
Source text: as §1, §3

[14] = system: Salmonella typhimurium 1335; test: in vitro tube dilution test (MIC); assay type: cell-based; details: Salmonella enterica; Salmonella typhimurium 1335, tube dilution
Source text: as §1, §3

[15] = system: Mycoplasma gallisepticum 38502; test: in vitro tube dilution test (MIC); assay type: cell-based; details: Mycoplasmoides gallisepticum; Mycoplasma gallisepticum 38502, tube dilution
Source text: as §3

[16] = system: Staphylococcus aureus 3055; test: in vitro tube dilution test (MIC); assay type: cell-based; details: Staphylococcus aureus 3055, tube dilution
Source text: as §3

[17] = system: Streptococcus pyogenes; test: Tests in mice, Streptococcus pyogenes infection; assay type: in vivo; details: S. pyogenes, two subcutaneous doses of 83 mg./kg., 1 and 5 hours
Method: (§7) Groups of laboratory mice were inoculatd with E. coli or with Streptococcus pyogenes. The 3-nitropyrazoles were administered in two different modes to the infected mice. In one group of tests, the compound was administered in two subcutaneous doses of 83 mg./kg. each, given 1 and 5 hours after the mice were inoculated with the organism. The mice were observed, and the results reported below as the number of days the treated mice survived the challenge.
(§8) In the other group of tests, the dose of each compound which allowed 50 percent of the treated mice to survive the challenge was determined. Again, the compound was administered in subcutane divided doses, 1 and 5 hours post-inoculation.

[18] = system: E. coli; test: Tests in mice, E. coli infection; assay type: in vivo; details: for ED50: Escherichia coli, sc, subcutaneous, 1 and 5 hours post-inoculation; for Days Survived: two subcutaneous doses of 83 mg./kg., 1 and 5 hours
Method: as §7, §8

[19] = system: Mycoplasma hyorhinis; test: in vitro tube dilution test (MIC); assay type: cell-based
Source text: as §1, §3

[20] = system: Erwinia amylovora; test: Fire blight of pear, in vivo greenhouse test
Method: An in vivo test was conducted against the fire blight organism, Erwinia amylovora. Plants infected with E. amylovora were sprayed with aqueous dispersions containing 100 ppm. and 500 ppm. of the test compounds. […] The compounds are identified below by their compound numbers in the above listing.

[21] = system: H. meleagridis; test: Blackhead in poultry, turkeys; assay type: in vivo
Method: as §4, §5, §6

[22] = system: S. typhimurium; test: Salmonella typhimurium in chickens, medicated feed; assay type: in vivo, chicks; details: Test C, 200 gm./ton feed
[23] = system: avian E. coli; test: Colibacillosis in chickens, medicated feed; assay type: in vivo; details: 300 gm./ton feed; about 5 weeks old; 10^-2 dilution challenge; first test
[24] = system: E. amylovora; test: Fire blight of apple, induced infection of McIntosh apple seedlings; assay type: in vivo; details: 6 days, scale 1 (symptoms in main stem) to 4 (complete control)
Source text: A typical test of one of our compounds against an induced E. amylovora infection of McIntosh apple seedlings will be reported. The compound, [2-(4-carbamoyl-3-nitropyrazol-1-yl)ethyl] phenyl carbonate, was sprayed on the seedlings as an aqueous dispersion at the concentrations shown below. Four replicate trees were used per treatment. After the spray had dried, each tree was challenged by punching a hole through the midvein at the tip of one leaf per plant, and placing a drop of an E. amylovora culture in the hole.
After 6 days, the trees were observed, and the control of the infection was rated on the following scale.
1 = disease symptoms in main stem
2 = disease symptoms in petiole
3 = disease symptoms in the leaf only
4 = complete control of disease
The results are shown below as the mean disease control rating.

[25] = system: mycoplasma which causes aster yellows; test: Aster yellows disease test; assay type: in vivo, aster plants; details: 20 days
Source text: The following data report a test of an exemplary compound against aster yellows disease. The compound, [2-(4-carbamoyl-3-nitropyrazol-1-yl)ethyl] phenyl carbonate, was applied to aster plants as an aqueous dispersion at concentrations shown below. Two plants were sprayed with each concentration. Each pair of plants was placed in a wire mesh cage, and four leafhoppers infected with the mycoplasma which causes aster yellows were placed in each cage. After 20 days, the plants were observed and disease control was rated as the percent of the plants' surface affected by the disease.

[26] = Staphylococcus aureus sp. 1130, tube dilution
[27] = Staphylococcus aureus, SP.1130, Staphyloccocus 1130, tube dilution

MIC [1] [µg/mL]	MIC [2] [µg/mL]	MIC [3] [µg/mL]	MIC [4] [µg/mL]	MIC [5, 26] [µg/mL]	MIC [6] [µg/mL]	MIC [7] [µg/mL]	SMILES	Active Level (lowest feed concentration which gave an active response) [8]	responders at 60 mg/kg [9] [%]	also measured
50 (≈ 238 µM)	> 50	25 (≈ 119 µM)	50 (≈ 238 µM)	50 (≈ 238 µM)	50 (≈ 238 µM)	> 50	NC(=O)c1cn(CC2CC2)nc1[N+](=O)[O-] [Compound 90, 1-cyclopropylmethyl-3-nitro-4-pyrazolecarboxamide]	.02%	80	–
> 50	–	> 50	> 50	> 50	> 50	> 50	COC(=O)c1cn(CCO)nc1[N+](=O)[O-] [Compound 71, methyl 1-(2-hydroxyethyl)-3-nitro-4-pyrazolecarboxylate]	–	–	MIC [10]: 0.39 µg/mL (≈ 1.81 µM)
12.5 (≈ 58.4 µM)	50 (≈ 233 µM)	50 (≈ 233 µM)	12.5 (≈ 58.4 µM)	50 (≈ 233 µM)	50 (≈ 233 µM)	> 50	COCCn1cc(C(N)=O)c([N+](=O)[O-])n1 [Compound 65, 1-(2-methoxyethyl)-3-nitro-4-pyrazolecarboxamide]	.02%	70	–
12.5 (≈ 73.5 µM)	50 (≈ 294 µM)	–	6.25 (≈ 36.7 µM)	12.5 (≈ 73.5 µM)	6.25 (≈ 36.7 µM)	100 (≈ 588 µM)	Cn1cc(C(N)=O)c([N+](=O)[O-])n1 [Compound 3, 1-methyl-3-nitro-4-pyrazolecarboxamide]	.02%	–	Percent Control of fire blight ([20]; 100 ppm.): 25%; Percent Control of fire blight ([20]; 500 ppm.): 75%

Second part, the compound before the results:

SMILES	MIC [1] [µg/mL]	MIC [2] [µg/mL]	MIC [3] [µg/mL]	MIC [4] [µg/mL]	MIC [5, 26] [µg/mL]	MIC [6] [µg/mL]	MIC [7] [µg/mL]	Active Level (lowest feed concentration which gave an active response) [8]	responders at 60 mg/kg [9] [%]	also measured
CNC(=O)c1cn(CCO)nc1[N+](=O)[O-] [Compound 58, 1-(2-hydroxyethyl)-N-methyl-3-nitro-4-pyrazolecarboxamide]	–	–	0.78 (≈ 3.64 µM)	12.5 (≈ 58.4 µM)	–	25 (≈ 117 µM)	–	–	90	MIC [11]: 25 µg/mL (≈ 117 µM); MIC [12]: 12.5 µg/mL (≈ 58.4 µM); MIC [13]: 3.12 µg/mL (≈ 14.6 µM); MIC [14]: 12.5 µg/mL (≈ 58.4 µM); MIC [15]: 6.25 µg/mL (≈ 29.2 µM); MIC [16]: 10 µg/mL (≈ 46.7 µM); MIC [5, 27]: 12.5 µg/mL (≈ 58.4 µM); Days Survived [17]: 1.8 days; ED50 [18]: 40 mg/kg; Days Survived [18]: 7.0 days
CCOCCn1cc(C(N)=O)c([N+](=O)[O-])n1 [Compound 34, 1-(2-ethoxyethyl)-3-nitro-4-pyrazolecarboxamide]	–	–	25 (≈ 110 µM)	25 (≈ 110 µM)	–	50 (≈ 219 µM)	–	–	40	MIC [19]: 50 µg/mL (≈ 219 µM); MIC [11]: 50 µg/mL (≈ 219 µM); MIC [15]: 50 µg/mL (≈ 219 µM); MIC [16]: 100 µg/mL (≈ 438 µM); MIC [5, 27]: 6.25 µg/mL (≈ 27.4 µM); Percent Control of fire blight ([20]; 100 ppm.): 33%; Percent Control of fire blight ([20]; 500 ppm.): 66%; Days Survived [17]: 5.0 days; ED50 [18]: > 41 mg/kg; Days Survived [18]: 7.0 days; Active Level (lowest feed concentration which gave an active response) [21]: .02%; Survival [22]: 25/48; Avg. Wt. ([22]; surviving chicks): 62 gm.; E. coli Lesions [23]: 11/30; Mortality [23]: 0/30; Wt. [23]: 1136 gm.
CNc1nnc(-c2cn(C)nc2[N+](=O)[O-])s1 [Compound 2, 2-(1-methyl-3-nitro-4-pyrazolyl)-5-methylamino-1,3,4-thiadiazole]	50 (≈ 208 µM)	6.25 (≈ 26 µM)	–	50 (≈ 208 µM)	50 (≈ 208 µM)	25 (≈ 104 µM)	50 (≈ 208 µM)	.02%	–	chicks protected of the 5-bird treated group ([9]; salmonella challenge): at least three chicks of the 5-bird treated group
NC(=O)c1cn(CCOC(=O)Oc2ccccc2)nc1[N+](=O)[O-] [Compound 77, [2-(4-carbamoyl-3-nitropyrazol-1-yl)ethyl] phenyl carbonate]	–	–	–	–	–	–	–	.02%	80	mean disease control rating ([24]; 200 ppm.): 2.5; mean disease control rating ([24]; 400 ppm.): 3.5; mean disease control rating ([24]; 600 ppm.): 3.0; mean disease control rating ([24]; 800 ppm.): 3.4; mean disease control rating ([24]; 1000 ppm.): 3.5; mean disease control rating ([24]; 1200 ppm.): 3.5; Percent Infection (percent of plants' surface affected) ([25]; Concentration 200 (unit not given)): 0%; Percent Infection (percent of plants' surface affected) ([25]; Concentration 400 (unit not given)): 25%; Percent Infection (percent of plants' surface affected) ([25]; Concentration 800 (unit not given)): 0%
NC(=O)c1cn(CCc2ccccc2)nc1[N+](=O)[O-] [Compound 17, 1-phenethyl-3-nitro-4-pyrazolecarboxamide]	–	–	–	–	–	–	–	.0067%	–	Active Level (lowest feed concentration which gave an active response) [21]: .02%
